{"source": "patent US20090208970A1", "about": "“Probe for detection and quantification of inositol-1,4,5-trisphosphate and a method for detecting and quantifying inositol-1,4,5-trisphosphate using the same” (priority 2004, published 2009)", "format_in_all_cases": "cell-based", "key": {"[1]": {"test_system": "neuron prepared from hippocampus of a rat embryo", "experiment": "IP3 kinetics in neuron expressing the probe on glutamate stimulation", "details": "20 μM glutamate stimulation, cell body and dendrites, FIG. 3", "from_the_text": "The probe was expressed in a neuron prepared from hippocampus of a rat embryo, and IP3 kinetics in the neuron was observed."}, "MDCK cell nucleus": {"test_system": "MDCK cell nucleus", "experiment": "IP3 generation in the MDCK cell nucleus with nuclear-localized probe", "details": "100 μM ATP stimulation, probe with nuclear localization sequence in nucleus, FIG. 4", "from_the_text": "The probe was linked with the nuclear localization sequence of SEQ ID NO: 4 at the C terminal thereof, and expressed in MDCK cell."}, "[2]": {"test_system": "purine receptor of the MDCK cell", "experiment": "ATP-dependent IP3 generation in MDCK cells visualized with the probe", "experimental": "FIG. 2 is visualization of ATP-dependent IP3 generation in MDCK cells using the probe of this invention. (a), 100 μM ATP; (b), […]; and (c), 1 μM ATP.\n(§1) cDNA encoding a probe for IP3 detection and quantification (FIG. 1) was prepared by a genetic engineering method, and introduced into MDCK cell. Expression of the probe in the cytoplasm was confirmed since fluorescence was observed from the cells with a fluorescence microscope.\nAn increase in fluorescence intensity ratio (CFP/YFP) was observed by stimulating a purine receptor of the MDCK cell as obtained in Example 1 with 100 μM ATP (FIG. 2a)."}, "[3]": {"target": "T1, probe for IP3 detection and quantification expressed in MDCK cell (Homo sapiens, UniProt Q14643)", "T1 construct": "a region from 224th amino acid to 579th amino acid of the type 1 IP3 receptor; expressed in transfected cells; host or cells: MDCK cells", "T1 sequence (Q14643 224-579)": "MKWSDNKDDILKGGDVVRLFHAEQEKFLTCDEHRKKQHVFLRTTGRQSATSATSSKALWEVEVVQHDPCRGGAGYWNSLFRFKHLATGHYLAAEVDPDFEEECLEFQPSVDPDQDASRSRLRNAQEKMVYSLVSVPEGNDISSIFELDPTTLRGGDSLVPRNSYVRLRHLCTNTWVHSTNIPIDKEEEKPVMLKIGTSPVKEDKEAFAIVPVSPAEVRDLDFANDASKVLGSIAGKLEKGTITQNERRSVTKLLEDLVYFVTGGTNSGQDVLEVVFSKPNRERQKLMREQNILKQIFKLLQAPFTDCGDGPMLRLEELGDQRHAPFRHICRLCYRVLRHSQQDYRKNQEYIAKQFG", "experiment": "IP3 microinjection into MDCK cell expressing the FRET probe", "details": "each introduction of a small amount of IP3 by microinjection", "experimental": "as §1\nInto the MDCK cell expressing the probe as obtained in Example 1, IP3 was introduced by a microinjection method."}}}
{"smiles": "N[C@@H](CCC(=O)O)C(=O)O", "note": "[glutamate]", "values": [{"measurement": "IP3 concentration", "setting": "[1]", "result": "temporally increased in not only the cell body but also the dendrites"}]}
{"smiles": "Nc1ncnc2c1ncn2[C@@H]1O[C@H](COP(=O)(O)OP(=O)(O)OP(=O)(O)O)[C@@H](O)[C@H]1O", "note": "[ATP]", "values": [{"measurement": "IP3 concentration", "setting": "MDCK cell nucleus", "result": "temporally increased"}, {"measurement": "response of the probe", "setting": "[2]; 1 μM ATP stimulation, FIG. 2c", "result": "a response of the probe was also observed depend on ATP concentration"}, {"measurement": "response of the probe", "setting": "[2]; 10 μM ATP stimulation, FIG. 2b", "result": "a response of the probe was also observed depend on ATP concentration"}, {"measurement": "fluorescence intensity ratio (CFP/YFP)", "setting": "[2]; 100 μM ATP stimulation, FIG. 2a", "result": "increase"}]}
{"smiles": "O=P(O)(O)O[C@@H]1[C@H](O)[C@H](O)[C@@H](OP(=O)(O)O)[C@H](OP(=O)(O)O)[C@H]1O", "note": "[IP3, Inositol-1,4,5-trisphosphate]", "values": [{"measurement": "CFP/YFP fluorescence intensity ratio", "setting": "[3]", "result": "stepwise increased and saturated soon"}]}
